Reference: patent US20180193336A1, “SPRAY DRY FORMULATIONS” (Pulmokine, Inc., priority 2013, published 2018)
Where “and” joins values, the source holds several entries; their conditions need not be identical. Identical values can stand only once.

Tests used:
[1] = Pharmacokinetic study, inhaled vs intravenous, lung and plasma levels; assay type: in vivo, rat; conditions: [(AUClung/AUCplasma)respiratory]/[(AUClung/AUCplasma)IV]
Experimental: PK10453 (Structure 2) was administered intravenously or by inhalation to animals, which were then euthanized at time 0, 10, 20, and 60 min (n=3 each time point). Blood samples were taken by cardiac puncture, and the lungs excised. The lungs were homogenized and PK10453 (Structure 2) extracted with a 1:3 mixture of acetonitrile:methanol. Similarly, plasma was extracted with a 1:3 mixture of acetonitrile:methanol. Drug was assayed by LC MS/MS (PharmOptima Inc., Portage Mich.). First order exponential curves were fit to the data with Excel. AUC was determined with the trapezoidal method of integration.
For the pharmacokinetic study, the concentration of PK10453 (Structure 2) in lung when administered by inhalation was compared to the concentration achieved with IV administration. As described in Moren “Aerosols in medicine: principles, diagnosis, and therapy.” Amsterdam; New York: Elsevier, xx, 429 (1993) and Phalen et al., “Inhalation exposure methodology.” Environ Health Perspect 56:23-34 (1984)), it is possible to estimate the pharmacokinetic advantage of inhalation relative to intravenous administration, Rd, by comparing the AUC of a plot of the drug concentration as a function of time following respiratory and IV administration: […]
The pharmacokinetic data was modeled to a first order exponential curve, and the AUC calculated from the curves (see Table 2). […]

rat MCT+PN model [2] = assay: RV pressure, PV loops and RV hypertrophy in rat MCT+PN model; assay type: in vivo; conditions: for RV systolic pressure: 14 days
Experimental: In a separate cohort of animals, the MCT+PN model was developed as described above, and PK10453 (Structure 2) was then administered for 4 or 8 min three times a day to the drug treated group. The vehicle control group underwent 4 min exposures three times a day. Pressure Volume (PV) loops were obtained with an admittance system (Scisense, Inc.) after 14 days of treatment, while rats were under general anesthesia with isoflurane and 100% FiO2. Also, or in the alternative, RV pressures were obtained in each group after 14 days of treatment. In a subset of each group, pressure Volume (PV) loops were obtained with an admittance system (high fidelity catheter FTE1918B, Scisense, Inc.) after 14 days of treatment. After induction of general anesthesia and intubation via tracheostomy, the rats were placed on a pressure controlled ventilator (TOPOVENT). General anesthesia consisted of isoflurane and 100% F1O2 with peak inspiratory pressure set at 18 cm, and PEEP 5 cm H2O. A left thoracotomy was performed with admittance catheter in the RV via the RV outflow tract.
At the end of the study, the heart and lungs were removed from ventilated animals under general anesthesia. Heparinized saline was infused under pressure through the main pulmonary artery. The right upper lobe was immediately tied off and placed in liquid nitrogen for Western blot and NanoPro 100 assay analysis. The heart was removed, and the RV free wall, interventricular septum and LV free wall dissected and weighed. Buffered formalin (10%) was infused under pressure both through the pulmonary artery and the trachea. Morphometric analysis was performed on H&E stained formalin fixed tissue sectioned at 8 μm. The media area and lumen area of pulmonary arterioles were measured with Image J software by a technician blinded to treatment group. Measurements were made on 20 pulmonary arterioles per section. The ratio of the lumen area to the total media area was determined. This ratio normalizes the variation in total pulmonary arteriole area. In addition, occlusive analysis was performed in the monocrotaline plus pneumonectomy study (specifically efficacy study 5) according to the method of Homma et al., “Involvement of RhoA/Rho kinase signaling in protection against monocrotaline-induced pulmonary hypertension in pneumonectomized rats by dehydroepiandrosterone.” Am J Physiol Lung Cell Mol Physiol. Vol. 295:L71-8 (2008). Briefly, pre-capillary arterioles were assigned grade 0 for no evidence of neointimal lesions, grade 1 for less than 50% luminal occlusion, and grade 2 for greater than 50% occlusion. Masson Trichrome stains were performed on lung sections from the MCT+PN model. […]

rat MCT+PN model [3] = assay: Pulmonary arteriole morphometry and occlusion analysis in rat MCT+PN model; assay type: in vivo
Excerpt: At the end of the study, the heart and lungs were removed from ventilated animals under general anesthesia. Heparinized saline was infused under pressure through the main pulmonary artery. The right upper lobe was immediately tied off and placed in liquid nitrogen for Western blot and NanoPro 100 assay analysis. The heart was removed, and the RV free wall, interventricular septum and LV free wall dissected and weighed. Buffered formalin (10%) was infused under pressure both through the pulmonary artery and the trachea. Morphometric analysis was performed on H&E stained formalin fixed tissue sectioned at 8 μm. The media area and lumen area of pulmonary arterioles were measured with Image J software by a technician blinded to treatment group. Measurements were made on 20 pulmonary arterioles per section. The ratio of the lumen area to the total media area was determined. This ratio normalizes the variation in total pulmonary arteriole area. In addition, occlusive analysis was performed in the monocrotaline plus pneumonectomy study (specifically efficacy study 5) according to the method of Homma et al., “Involvement of RhoA/Rho kinase signaling in protection against monocrotaline-induced pulmonary hypertension in pneumonectomized rats by dehydroepiandrosterone.” Am J Physiol Lung Cell Mol Physiol. Vol. 295:L71-8 (2008). Briefly, pre-capillary arterioles were assigned grade 0 for no evidence of neointimal lesions, grade 1 for less than 50% luminal occlusion, and grade 2 for greater than 50% occlusion. Masson Trichrome stains were performed on lung sections from the MCT+PN model.

[4] = Fluorescent imaging of lung distribution after inhalation with IR780 tracer; assay type: in vivo, rat; conditions: 2 min inhalation with IR780 tracer
Experimental: A near IR fluorescent tracer, IR-780, was added to the drug solution in the nebulizer to ensure dried aerosol particles contained both the drug and IR tracer. After a two min exposure, animals were placed under general anesthesia underwent intubation via tracheostomy, and the lungs were excised. OCT/PBS was infused via the pulmonary artery, the lung insufflated with air, and the lungs frozen in the vapor phase of liquid nitrogen. Serial approximate 2 mm sections of lung were imaged on a Licor Odyssey Imager.

rat MCT+PN model [5] = assay: Telemetry of pulmonary artery pressure in rat MCT+PN model; assay type: in vivo; conditions: for PA systolic pressure: separate MCT+PN telemetry study
Experimental: Pneumonectomy and implantation of a TRM53P telemetry monitor in the pulmonary artery (Telemetry Research, New Zealand and ADInstruments, Colorado) was carried out in rats. Two weeks after MCT, PK10453 (Structure 2) was administered three times daily for 1 week. […] The two groups underwent 4 min exposures of either the vehicle control or PK10453 (Structure 2). Sampling of PA pressure was performed 5 min before each morning dose in ambulatory animals in room air (estimated atmospheric pressure 716 mm Hg based on elevation of animal facility). […] Telemetry data was obtained for 10 min daily before each morning dose for this protocol.

[6] = Systemic blood pressure study in ambulatory MCT treated rats; assay type: in vivo, rat
Experimental: The effect of PK10453 (Structure 2) on systemic BP was studied in ambulatory MCT treated rats with DSI PAC40 transmitters implanted in the descending aorta. […] Blood pressure was recorded before each morning dose.

[7] = test system: rat monocrotaline plus pneumonectomy model; assay: Trichrome stain of lung sections, rat monocrotaline plus pneumonectomy model; assay type: in vivo; conditions: inhaled; compared to vehicle treated animal; FIG. 42
Excerpt: At the end of the study, the heart and lungs were removed from ventilated animals under general anesthesia. Heparinized saline was infused under pressure through the main pulmonary artery. The right upper lobe was immediately tied off and placed in liquid nitrogen for Western blot and NanoPro 100 assay analysis. The heart was removed, and the RV free wall, interventricular septum and LV free wall dissected and weighed. Buffered formalin (10%) was infused under pressure both through the pulmonary artery and the trachea. Morphometric analysis was performed on H&E stained formalin fixed tissue sectioned at 8 μm. The media area and lumen area of pulmonary arterioles were measured with Image J software by a technician blinded to treatment group. Measurements were made on 20 pulmonary arterioles per section. The ratio of the lumen area to the total media area was determined. This ratio normalizes the variation in total pulmonary arteriole area. In addition, occlusive analysis was performed in the monocrotaline plus pneumonectomy study (specifically efficacy study 5) according to the method of Homma et al., “Involvement of RhoA/Rho kinase signaling in protection against monocrotaline-induced pulmonary hypertension in pneumonectomized rats by dehydroepiandrosterone.” Am J Physiol Lung Cell Mol Physiol. Vol. 295:L71-8 (2008). […]

[8] = Body weights of treated rats; assay type: in vivo, rat; conditions: D4 and D8 groups; FIG. 19

For `COc1cc(-c2cncc(N[C@@H](C)c3cccc(NC(=O)c4cncc(C)c4)c3)n2)ccc1O` [PK10453, (S)—N-(3-(1-((6-(4-hydroxy-β-methoxyphenyl)pyrazin-2yl)amino)ethyl)phenyl)-5-methylnicotinamide], the “Rd, pharmacokinetic advantage of inhalation relative to intravenous administration” value [1] was 44.6 fold and 45 fold and 44.58 fold, the “(RV+IVS)/LV ratio” value (rat MCT+PN model [2]; D4) was 0.62±0.04 and the RV systolic pressure (rat MCT+PN model [2]; D4, 4 min three times a day) was 40.4±2.7 mm Hg and 40.4+2.7 mm Hg. The “(RV+IVS)/LV ratio” value (rat MCT+PN model [2]; D8) was 0.68±0.05, the RV systolic pressure (rat MCT+PN model [2]; D8, 8 min three times a day) was 43±3.0 mm Hg and 43.0+3.0 mm Hg and the “Grade 2 occlusion lesions” value (rat MCT+PN model [3]; D4) was 28.5±4.2%. The “lumen area to media area ratio (L/M)” value (rat MCT+PN model [3]; D4, FIG. 7 PANEL C) was 0.33±0.06, the “Grade 2 occlusion lesions” value (rat MCT+PN model [3]; D8) was 11.4±4.1% and the “lumen area to media area ratio (L/M)” value (rat MCT+PN model [3]; D8, FIG. 7 PANEL C) was 0.72±0.05. For the same compound, the “lumen area to media area ratio (L/M)” value (rat MCT+PN model [3]; higher dose D8, FIG. 9) was 1.17±0.07, the “lumen area to media area ratio (L/M)” value (rat MCT+PN model [3]; lower dose D4, FIG. 9) was 0.75±0.14 and the “spatial distribution in lung after inhalation” value [4] was “well distributed throughout the lungs”. For the same compound, the “efficacy by inhalation in the MCT+PN model” value (rat MCT+PN model [5]; rat MCT+PN) was “effective in lowering pulmonary pressures”, the PA systolic pressure (rat MCT+PN model [5]; after five days of treatment) was 47.2±3.0 mm Hg and the PA systolic pressure (rat MCT+PN model [5]; treatment day 9) was 50.5±7 mm Hg. The “systolic BP” value ([6]; MCT rats, day seven of treatment, 4 min exposure 3×/d) was 131±10 mmHg, the “effect on systemic BP” value ([6]; rat MCT model) was “did not have an adverse effect” and the “collagen deposition in lung sections (trichrome stain)” value [7] was “less collagen deposition”. For the same compound, the “body weight compared to vehicle” value [8] was “trend to a slower rate of decline”.
